Measurements from ChEMBL document CHEMBL5346919, “Toward anthelmintic drug candidates for toxocariasis: Challenges and recent developments” (2023).
pEC50: −log10 of the molar value.

Key:
Format in all cases: functional
[1] = system: Toxocara cati; experiment: Antiparasitic activity against Toxocara cati infected in cat assessed as worm burden reduction at 50 mg/kg, po measured after 2 days; parameters: scale not given: the % may be the effect or the level left; details: time 2 day
[2] = system: Toxocara cati; experiment: Antiparasitic activity against Toxocara cati infected in cat assessed as worm burden reduction at 25 mg/kg,po measured after 3 days; parameters: scale not given: the % may be the effect or the level left; details: time 3 day
[3] = system: Toxocara canis; experiment: Antiparasitic activity against Toxocara canis infected in dog assessed as egg burden reduction at 50 mg/kg,po measured after 3 days; parameters: scale not given: the % may be the effect or the level left; details: time 3 day
[4] = system: Toxocara canis; experiment: Antiparasitic activity against Toxocara canis assessed as larvicidal activity at 1100 uM measured after 48 hrs relative to control
[5] = system: Toxocara canis; experiment: Antiparasitic activity against Toxocara canis assessed as larvicidal activity at 192 uM measured after 48 hrs relative to control
[6] = system: Toxocara canis; experiment: Antiparasitic activity against Toxocara canis assessed as relative mobility
[7] = system: Toxocara canis; experiment: Antiparasitic activity against Toxocara canis j2 larvae assessed as relative mobility at 18 uM measured after 48 hrs
[8] = system: Toxocara canis; experiment: Antiparasitic activity against Toxocara canis infected in mouse assessed as worm burden reduction in muscles at 350 mg/kg,sc administered twice a day relative to control; parameters: scale not given: the % may be the effect or the level left
[9] = system: Toxocara canis; experiment: Antiparasitic activity against Toxocara canis infected in mouse assessed as worm burden reduction in brain at 25 mg/kg,po or sc administered twice a day for 5 days relative to control; parameters: scale not given: the % may be the effect or the level left; details: time 5 day
[10] = system: Toxocara canis; experiment: Antiparasitic activity against Toxocara canis infected in mouse assessed as worm burden reduction in brain at 25 mg/kg,sc administered twice a day for 5 days relative to control; parameters: scale not given: the % may be the effect or the level left; details: time 5 day
[11] = system: Toxocara canis; experiment: Antiparasitic activity against Toxocara canis infected in mouse assessed as worm burden reduction in brain at 100 mg/kg,po administered twice a day for 5 days relative to control; parameters: scale not given: the % may be the effect or the level left; details: time 5 day
[12] = system: Toxocara canis; experiment: Antiparasitic activity against Toxocara canis infected in mouse assessed as worm burden reduction in brain at 150 mg/kg,sc administered twice a day relative to control; parameters: scale not given: the % may be the effect or the level left
[13] = system: Toxocara canis; experiment: Antiparasitic activity against Toxocara canis infected in mouse assessed as worm burden reduction in muscles at 25 mg/kg,sc administered twice a day for 5 days relative to control; parameters: scale not given: the % may be the effect or the level left; details: time 5 day
[14] = system: Toxocara canis; experiment: Antiparasitic activity against Toxocara canis assessed as relative mobility at 1 to 10000 uM measured after 24 hrs by; details: dose 1-10000 µM, read-out: ED50 (the source's name)
[15] = system: Toxocara canis; experiment: Antiparasitic activity against Toxocara canis infected in mouse assessed as worm burden reduction in muscles at 25 mg/kg,po or sc administered twice a day for 5 days relative to control; parameters: scale not given: the % may be the effect or the level left; details: time 5 day
[16] = system: Toxocara vitulorum; experiment: Antiparasitic activity against Toxocara vitulorum infected in assessed as decrease in number of larvae in lung at 40 mg/kg,po measured after 7 days; details: 168 h, time 7 day
[17] = system: Toxocara vitulorum; experiment: Antiparasitic activity against Toxocara vitulorum infected in assessed as decrease in number of larvae in liver at 40 mg/kg,po measured after 7 days; details: 168 h, time 7 day

For `O=C(Nc1ccc(N=C=S)cc1Cl)c1cc(Br)cc(Br)c1O`, the Activity [1] was 100%, the Activity [2] was 100% and the Activity [3] was 100%.
For `CC1(C)CCC2=C(O1)C1(CO1)C1=C(CCCC1)C2=O` (stereo not given), the Activity [4] was 100%.
With `C=CCOC1=CC(=O)c2ccccc2C12CO2` (stereo not given) the Activity [4] was 100%.
Compound `O=C1C(Cl)=C(Cl)C2(CO2)c2ccccc21` (stereo not given) has an Activity [4] of 100%.
With `CC1(C)CCC2=C(O1)C1(CO1)c1ccccc1C2=O` (stereo not given) the Activity [4] was 100% and the Activity [5] was 100%.
Work on `CC1(C)CC2=C(O1)C1(CO1)c1ccccc1C2=O` (stereo not given) yielded an Activity [4] of 100%.
For `OCCCC1NCCc2c1[nH]c1ccccc21` (stereo not given), the ED [6] was 59.9 µM.
`CCCSc1ccc2c(c1)nc(NC(=O)OC)n2COC(C)=O` gave an Activity [7] of 30%.
With `CCCSc1ccc2[nH]c(NC(=O)OC)nc2c1` [ALBENDAZOLE] the Activity [8] was 37.5%, the Activity [9] was 66.1% and the Activity [10] was 92.2%. The Activity [11] was 100%, the Activity [12] was 54.2% and the Activity [13] was 70%.
`COc1ccc2c(c1OC)CN(C)CCc1cc3c(cc1C(=O)C2)OCO3` [ALLOCRYPTOPINE] gave a pEC50 [14] of 3.46.
Compound `COc1cc2c(cc1OC)-c1c(C)c3ccc(OC)c(OC)c3c[n+]1CC2` [DEHYDROCORYDALINE] has a pEC50 [14] of 3.53.
For `COC(=O)Nc1nc2cc(Sc3ccccc3)ccc2[nH]1` [FENBENDAZOLE], the Activity [10] was 44.7%, the Activity [13] was 55.7% and the Activity [15] was 89.5%.
`COc1ccc(Cc2nccc3cc(OC)c(OC)cc23)cc1OC` [PAPAVERINE] gave a pEC50 [14] of 3.60.
For `Cc1ccc(C(C)C)c(O)c1` [THYMOL], the inhibition in vivo at 40 mg/kg [16] was 66.7% and the inhibition in vivo at 40 mg/kg [17] was 58.5%.
